Test results: BindingDB's records for patent WO2025049746 (Eikon Therapeutics, 2025)

Experiments:
[1] = molecular target: T1, Bifunctional 3'-5' exonuclease/ATP-dependent helicase WRN [480-1251] (UniProt Q14191); test: Biochemical Activity Assays
T1 construct: 480-1251

[2] = molecular target: Bifunctional 3'-5' exonuclease/ATP-dependent helicase WRN (Homo sapiens, UniProt Q14191); test: ADP-Glo Kinase Assay
Procedure: ATPase activity was measured using the ADP-Glo Kinase Assay following the manufacturers recommended protocol.

T1 sequence (Q14191 480-1251): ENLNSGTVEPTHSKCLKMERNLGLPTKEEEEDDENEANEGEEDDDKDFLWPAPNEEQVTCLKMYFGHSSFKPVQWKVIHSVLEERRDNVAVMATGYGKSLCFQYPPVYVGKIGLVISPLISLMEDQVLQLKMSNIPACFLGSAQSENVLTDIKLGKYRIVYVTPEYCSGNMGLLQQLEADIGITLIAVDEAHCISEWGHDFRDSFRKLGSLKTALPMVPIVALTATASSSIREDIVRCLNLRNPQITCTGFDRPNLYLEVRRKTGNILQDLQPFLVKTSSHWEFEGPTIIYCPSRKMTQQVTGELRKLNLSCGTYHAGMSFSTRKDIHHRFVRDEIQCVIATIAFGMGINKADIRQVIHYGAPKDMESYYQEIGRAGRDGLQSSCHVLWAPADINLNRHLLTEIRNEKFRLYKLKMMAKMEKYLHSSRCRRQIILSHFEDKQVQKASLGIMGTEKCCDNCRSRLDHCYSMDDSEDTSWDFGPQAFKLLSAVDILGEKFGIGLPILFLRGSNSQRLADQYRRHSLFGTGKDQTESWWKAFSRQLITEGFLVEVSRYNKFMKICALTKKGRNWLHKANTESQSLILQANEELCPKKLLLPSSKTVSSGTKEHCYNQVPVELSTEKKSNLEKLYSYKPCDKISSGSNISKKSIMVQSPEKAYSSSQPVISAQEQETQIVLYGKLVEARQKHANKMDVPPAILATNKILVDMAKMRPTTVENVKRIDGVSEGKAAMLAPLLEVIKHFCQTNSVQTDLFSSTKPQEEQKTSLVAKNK
Bifunctional 3'-5' exonuclease/ATP-dependent helicase WRN, sequence (Q14191 whole entry): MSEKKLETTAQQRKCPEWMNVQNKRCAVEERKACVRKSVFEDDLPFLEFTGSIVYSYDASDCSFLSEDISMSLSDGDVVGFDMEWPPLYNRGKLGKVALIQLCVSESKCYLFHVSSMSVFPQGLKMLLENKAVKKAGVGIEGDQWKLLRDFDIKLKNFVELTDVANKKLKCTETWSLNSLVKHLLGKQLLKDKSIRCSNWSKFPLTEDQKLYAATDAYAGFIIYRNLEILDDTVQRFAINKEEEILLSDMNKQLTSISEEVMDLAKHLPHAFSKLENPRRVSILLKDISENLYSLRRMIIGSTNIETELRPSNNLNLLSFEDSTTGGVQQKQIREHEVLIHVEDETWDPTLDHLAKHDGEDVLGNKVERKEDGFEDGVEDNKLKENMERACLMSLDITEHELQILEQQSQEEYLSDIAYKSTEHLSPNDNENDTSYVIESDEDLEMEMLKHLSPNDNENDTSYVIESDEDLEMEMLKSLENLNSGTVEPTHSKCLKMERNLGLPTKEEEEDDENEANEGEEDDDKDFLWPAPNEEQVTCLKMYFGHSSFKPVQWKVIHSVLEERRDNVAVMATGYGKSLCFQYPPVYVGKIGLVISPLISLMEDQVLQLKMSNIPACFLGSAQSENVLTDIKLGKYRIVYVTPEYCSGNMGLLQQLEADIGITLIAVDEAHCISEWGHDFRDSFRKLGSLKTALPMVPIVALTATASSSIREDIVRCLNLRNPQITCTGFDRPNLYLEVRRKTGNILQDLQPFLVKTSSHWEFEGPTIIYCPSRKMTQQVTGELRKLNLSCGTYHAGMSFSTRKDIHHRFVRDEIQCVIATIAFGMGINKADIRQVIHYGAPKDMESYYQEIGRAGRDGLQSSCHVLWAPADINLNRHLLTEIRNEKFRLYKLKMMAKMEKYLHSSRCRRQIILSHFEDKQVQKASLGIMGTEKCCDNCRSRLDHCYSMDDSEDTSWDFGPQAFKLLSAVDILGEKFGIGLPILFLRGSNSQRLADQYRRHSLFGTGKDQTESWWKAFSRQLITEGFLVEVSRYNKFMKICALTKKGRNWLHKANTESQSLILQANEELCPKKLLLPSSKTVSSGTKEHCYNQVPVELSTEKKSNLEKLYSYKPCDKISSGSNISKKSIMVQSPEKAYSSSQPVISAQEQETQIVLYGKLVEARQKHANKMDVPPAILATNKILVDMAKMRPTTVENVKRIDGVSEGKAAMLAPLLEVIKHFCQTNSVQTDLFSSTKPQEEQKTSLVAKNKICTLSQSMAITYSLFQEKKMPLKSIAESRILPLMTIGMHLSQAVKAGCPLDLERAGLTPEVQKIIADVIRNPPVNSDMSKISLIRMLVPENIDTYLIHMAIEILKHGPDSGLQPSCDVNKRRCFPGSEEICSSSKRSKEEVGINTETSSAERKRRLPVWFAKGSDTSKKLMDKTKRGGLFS

SMILES | IC50 [1] | IC50 [2]
CCc1c(N2CCN(C(=O)c3ncnc(C)c3O)CC2)c(=O)n2nc(-c3ccc4c(c3)OCO4)nc2n1CC(=O)Nc1ccc(C(F)(F)F)cc1Cl [WO2025049746, Example 10] | 22.1 nM | 28.5 nM
CCc1c(N2CCN(C(=O)c3ccccc3NS(=O)(=O)C3CC3)CC2)c(=O)n2nc(N3C[C@H]4COC[C@H]4C3)nc2n1CC(=O)Nc1ccc(C(F)(F)F)c2c1CC2 [WO2025049746, Example 112] | 45.7 nM | 58.3 nM
CCc1c(N2CCN(C(=O)c3ncnc(C)c3O)CC2)c(=O)n2nc(-c3ccc4c(c3)CCOC4)nc2n1C(F)(F)C(=O)Nc1ccc(C(F)(F)F)cc1Cl [WO2025049746, Example 402] | 26 nM | 32 nM
CCc1c(N2CCN(C(=O)c3ncnc(C)c3O)CC2)c(=O)n2nc(-c3ccc4c(c3)[C@H](C)OC4)nc2n1CC(=O)Nc1ccc(C(F)(F)F)cc1Cl [WO2025049746, Example 189] | 29 nM | 34 nM
CCc1c(N2CCN(C(=O)c3nc4c(cc3OCc3ccc(OC)cc3)COCC4)CC2)c(=O)n2nc(-c3ccc4c(c3)COC4(C)C)nc2n1CC(=O)Nc1ccc(C(F)(F)F)cc1Cl [WO2025049746, Example 464] | 83.3 nM | 68 nM
CCc1c(N2CCN(C(=O)c3ncnc(C)c3O)CC2)c(=O)n2nc(-c3ccc4c(c3)NC(=O)C4)nc2n1CC(=O)Nc1ccc(C(F)(F)F)cc1Cl [WO2025049746, Example 309] | 31 nM | 32 nM
CCc1c(N2CCN(C(=O)c3ncnc(C)c3O)CC2)c(=O)n2nc(N3CCCOCC3)nc2n1CC(=O)Nc1ccc(C(F)(F)F)cc1Cl [WO2025049746, Example 25] | 48.8 nM | 63.9 nM
CCc1c(N2CCN(C(=O)c3ncnc(C)c3O)CC2)c(=O)n2nc(-c3ccc4c(c3)COC43CN(C)C3)nc2n1CC(=O)Nc1ccc(C(F)(F)F)cc1Cl [WO2025049746, Example 209] | 45 nM | 56 nM
CCc1c(N2CCN(C(=O)c3ncnc(C)c3O)CC2)c(=O)n2nc(C3=CCOCC3)nc2n1CC(=O)NC1CC2C(C1)C2(F)F (configuration not stated) [WO2025049746, Example 350] | 6000 nM | 6830 nM
CCc1c(N2CCN(C(=O)c3ncnc(C)c3O)CC2)c(=O)n2nc(-c3ccc4c(c3)[C@H](C(F)(F)F)OC4)nc2n1CC(=O)Nc1ccc(C(F)(F)F)cc1Cl [WO2025049746, Example 277] | 173 nM | 176 nM
CCc1c(N2CCN(C(=O)c3ncnc(C)c3O)CC2)c(=O)n2nc(-c3cncc4c3COCC4)nc2n1CC(=O)Nc1ccc(C(F)(F)F)cc1Cl [WO2025049746, Example 161] | 84 nM | 524 nM
CCc1c(N2CCN(C(=O)c3nc4n(c(=O)c3O)CCC4)CC2)c(=O)n2nc(-c3ccc4c(c3)COC4)nc2n1CC(=O)Nc1ccc(C(F)(F)F)cc1Cl [WO2025049746, Example 422] | 38 nM | 47 nM
CCc1c(N2CCN(C(=O)c3ncnc(C)c3O)CC2)c(=O)n2nc(C3=CCOCC3)nc2n1CC(=O)NC1CC2(C1)CC2(F)F (configuration not stated) [WO2025049746, Example 366] | 2540 nM | 4200 nM
Cc1ncnc(C(=O)N2CCN(c3c4n(c5nc(-c6ccc7c(c6)COC7(C)C)nn5c3=O)[C@@H](C(=O)Nc3ccc(C(F)(F)F)cc3Cl)C[C@@H]4C)CC2)c1O [WO2025049746, Example 472] | 4940 nM | 3740 nM
CCc1c(N2CCN(C(=O)c3ncnc(C)c3O)CC2)c(=O)n2nc(C3=CCOCC3)nc2n1CC(=O)NC12CCC(C(F)(F)F)(CC1)CC2 [WO2025049746, Example 349] | 994 nM | 1950 nM
CCc1c(N2CCN(C(=O)c3ncnc(C)c3O)CC2)c(=O)n2nc(-c3ccc4c(c3F)CCO4)nc2n1CC(=O)Nc1ccc(C(F)(F)F)cc1Cl [WO2025049746, Example 180] | 45 nM | 53 nM

SMILES | IC50 [1] | IC50 [2]
CCc1c(N2CCN(C(=O)c3ncnc(C)c3O)CC2)c(=O)n2nc(C3=CCOCC3)nc2n1CC(=O)NC12CC(c3ccc(F)cc3)(C1)C2 [WO2025049746, Example 353] | 29700 nM | 6860 nM
CCc1c(N2CCN(C(=O)c3ncnc(C)c3O)CC2)c(=O)n2nc(-c3ccc4nc(C)sc4c3)nc2n1CC(=O)Nc1ccc(C(F)(F)F)cc1Cl [WO2025049746, Example 285] | 29 nM | 26 nM
CCc1c(N2CCN(S(=O)(=O)C3CC3)CC2)c(=O)n2nc(C3=CCOCC3)nc2n1CC(=O)Nc1ccc(C(F)(F)F)cc1Cl [WO2025049746, Example 60] | 44.5 nM | 38.5 nM
CCc1c(N2CCN(C(=O)c3ncnc(C)c3O)CC2)c(=O)n2nc(-c3cccc4oc(C)nc34)nc2n1CC(=O)Nc1ccc(C(F)(F)F)cc1Cl [WO2025049746, Example 155] | 35 nM | 89 nM
CCc1c(N2CCN(C(C)=O)CC2)c(=O)n2nc(C3=CCOCC3)nc2n1CC(=O)Nc1ccc(C(F)(F)F)cc1Cl [WO2025049746, Example 52] | 28.6 nM | 39.4 nM
CCc1c(N2CCN(C(=O)c3ncnc(C)c3O)CC2)c(=O)n2nc(C3=CCOCC3)nc2n1CC(=O)Nc1ccc(C(F)(F)F)c2cccnc12 [WO2025049746, Example 360] | 1990 nM | 2140 nM
CCc1c(N2CCN(C(=O)c3ncnc(C)c3O)CC2)c(=O)n2nc(-c3ccn4c(cc(=O)n4C(F)F)c3F)nc2n1CC(=O)Nc1ccc(C(F)(F)F)cc1Cl [WO2025049746, Example 335] | 58 nM | 64 nM
CCc1c(N2CCN(C(=O)c3ncnc(C)c3O)CC2)c(=O)n2nc(-c3ccc4nc(C)oc4c3)nc2n1CC(=O)Nc1ccc(C(F)(F)F)cc1Cl [WO2025049746, Example 237] | 84 nM | 82 nM
CCc1c(N2CCN(C(=O)c3ncnc(C)c3O)CC2)c(=O)n2nc(-c3ccc4oc(=O)n(C)c4c3)nc2n1CC(=O)Nc1ccc(C(F)(F)F)cc1Cl [WO2025049746, Example 225] | 32 nM | 27 nM
CCc1c(N2CCN(C(=O)c3ncnc(C)c3O)CC2)c(=O)n2nc(N(C)C)nc2n1CC(=O)Nc1ccc(SC(F)(F)F)cc1Cl [WO2025049746, Example 396] | 36 nM | 42 nM
CCc1c(N2CCN(C(=O)c3ncnc(C)c3O)CC2)c(=O)n2nc(C3=CCOCC3)nc2n1CC(=O)Nc1ccc(C(F)(F)F)n(C)c1=O [WO2025049746, Example 367] | 8510 nM | 29700 nM
CCc1c(N2CCN(C(=O)c3nc4n(c(=O)c3O)CCOC4)CC2)c(=O)n2nc(-c3ccc4c(c3)OCO4)nc2n1CC(=O)Nc1ccc(C(F)(F)F)cc1Cl [WO2025049746, Example 86] | 21.3 nM | 21.5 nM
CCc1c(N2CCN(C(=O)c3ncnc(C)c3O)CC2)c(=O)n2nc(-c3ccc4c(c3)CCOC4(C)C)nc2n1CC(=O)Nc1ccc(C(F)(F)F)cc1Cl [WO2025049746, Example 195] | 39 nM | 45 nM
CCc1c(N2CCN(C(=O)c3ncnc(C)c3O)CC2)c(=O)n2nc(-c3ccc4c(c3)CCC4(F)F)nc2n1CC(=O)Nc1ccc(C(F)(F)F)cc1Cl [WO2025049746, Example 187] | 75 nM | 170 nM
CCc1c(N2CCN(C(=O)c3ncnc(C)c3O)CC2)c(=O)n2nc(-c3ccc4c(c3)CC(=O)N4)nc2n1CC(=O)Nc1ccc(C(F)(F)F)cc1Cl [WO2025049746, Example 325] | 34 nM | 25 nM
